Experimental data as given in patent US10723727B2, “Tubulysin analogs and methods for their preparation” (priority 2016, dated 2020).

Assays:
[1] = target: T1, tubulin/RB3-stathmin-like-domain (RB3-SLD-tdm) complex (Sus scrofa, UniProt P02550+P02554); test: Tubulin Peptide-Binding Site Competition Assay (fluorescence polarization); set-up: species or system Porcine; conditions: FP competition with BODIPY-labeled vinca peptide probe; read after five hours at 22° C.; read-out: Tubulin Peptide-Binding Site Competition Assay IC50
T1 construct: purchased Cytoskeleton, Inc. T240; host or cells: RB3-SLD was made in house in E. coli
Procedure, shortened: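 The BODIPY vinca-peptide probe was premixed with test compound and then added to porcine tubulin/RB3-SLD, at final concentrations of 3 nM probe, 6 nM tubulin and 100 nM RB3-SLD. The buffer was PIPES pH 7.0 with Tween 20, MgCl2 and EGTA, and 11-point dilutions were run in duplicate. IC50 was fitted from the fluorescence polarization decrease and converted to Ki.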

[2] = test system: N87 (gastric cancer) cells; test: In vitro cell assay (MTS cell viability), N87; assay type: cell-based; conditions: 96 h, free compounds; 96 hours after treatment
Procedure, shortened: (§1)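 Cells seeded 24 h before treatment with antibody-drug conjugates or free compounds, 3-fold serial dilutions at 10 concentrations in duplicate. Viability read by MTS assay 96 h after treatment as % of untreated control; IC50 from four-parameter logistic fit.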

[3] = test system: MDA-MB-361-DYT2 (breast cancer) cells; test: In vitro cell assay (MTS cell viability), MDA-MB-361-DYT2; assay type: cell-based; conditions: 96 h, free compounds; 96 hours after treatment
Procedure, shortened: as §1

HT-29 cells = test: In vitro cell assay (MTS cell viability), HT-29 (target non-expressing); assay type: cell-based; conditions: Homo sapiens, HT-29, 96 h, free compounds; 96 hours after treatment; read-out: HT29 IC50
Protocol: In Vitro Cell Assay Procedure
Target expressing (BT474 (breast cancer), N87 (gastric cancer), HCC1954 (breast cancer), MDA-MB-361-DYT2 (breast cancer)) or non-expressing (HT-29) cells were seeded in 96-well cell culture plates for 24 hours before treatment. Cells were treated with 3-fold serially diluted antibody-drug conjugates or free compounds (i. e. no antibody conjugated to the drug) in duplicate at 10 concentrations. Cell viability was determined by CellTiter 96® AQueous One Solution Cell Proliferation MTS Assay (Promega, Madison Wis.) 96 hours after treatment. Relative cell viability was determined as percentage of untreated control. IC50 values were calculated using a four parameter logistic model #203 with XLfit v4. 2 (IDBS, Guildford, Surry, UK).

Row | Structure (SMILES) | IC50 [1] | IC50 [2] | IC50 [3] | IC50 (HT-29 cells)
1 | CCNC(=O)O[C@H](C[C@H](C(C)C)N(C)C(=O)[C@@H](NC(=O)[C@@]1(C)CCCN1C)[C@@H](C)CC)c1nc(C(=O)N[C@@H](Cc2ccc(N)cc2)C[C@H](C)C(=O)O)cs1 [#B21, 1,2-dimethyl-D-prolyl-N-{(1R,3R)-1-(4-{[(2R,4S)-1-(4-aminophenyl)-4-carboxypentan-2-yl]carbamoyl}-1,3-thiazol-2-yl)-1-[(ethylcarbamoyl)oxy]-4-methylpentan-3-yl}-N-methyl-L-isoleucinamide] | 1.9 nM | 1.87 nM | 1.93 nM | 1.62 nM
2 | CCNC(=O)O[C@H](C[C@H](C(C)C)N(C)C(=O)[C@@H](NC(=O)C12CCC(CC1)N2C)[C@@H](C)CC)c1nc(C(=O)N[C@@H](Cc2ccc(N)cc2)C[C@H](C)C(=O)O)cs1 [#B26, (2S,4R)-5-(4-aminophenyl)-4-{[(2-[(6R,8R,11S)-11-[(2S)-butan-2-yl]-9-methyl-13-(7-methyl-7-azabicyclo[2.2.1]hept-1-yl)-4,10,13-trioxo-8-(propan-2-yl)-5-oxa-3,9,12-triazatridecan-6-yl]-1,3-thiazol-4-yl}carbonyl)amino]-2-methylpentanoic acid] | < 0.5 nM | 7.78 nM | 8.27 nM | 8.83 nM
3 | CCNC(=O)O[C@H](C[C@H](C(C)C)N(C)C(=O)[C@@H](NC(=O)C12CCCC(CCC1)N2C)[C@@H](C)CC)c1nc(C(=O)N[C@@H](Cc2ccc(N)cc2)C[C@H](C)C(=O)O)cs1 [#B27, (2S,4R)-5-(4-aminophenyl)-4-{[(2-{(1R,3R)-1-[(ethylcarbamoyl)oxy]-4-methyl-3-(methyl{N-[(9-methyl-9-azabicyclo[3.3.1]non-1-yl)carbonyl]-L-isoleucyl}amino)pentyl]-1,3-thiazol-4-yl}carbonyl)amino]-2-methylpentanoic acid] | < 0.648 nM | 6.42 nM | 5.46 nM | 5.39 nM
4 | CC[C@H](C)[C@H](NC(=O)[C@@]1(C)CCCN1C)C(=O)N(C)[C@H](C[C@@H](OC(=O)NC)c1nc(C(=O)N[C@@H](Cc2ccc(N)cc2)C[C@H](C)C(=O)O)cs1)C(C)C [#B30, 1,2-dimethyl-D-prolyl-N-{(1R,3R)-1-(4-{[(2R,4S)-1-(4-aminophenyl)-4-carboxypentan-2-yl]carbamoyl}-1,3-thiazol-2-yl)-4-methyl-1-[(methylcarbamoyl)oxy]pentan-3-yl}-N-methyl-L-isoleucinamide] | 3.2 nM | 2.67 nM | 3.27 nM | 1.81 nM
5 | CC[C@H](C)[C@H](NC(=O)[C@@]1(C)CCCN1C)C(=O)N(C)[C@H](C[C@@H](OC(=O)N(C)C)c1nc(C(=O)N[C@@H](Cc2ccc(N)cc2)C[C@H](C)C(=O)O)cs1)C(C)C [#B31, 1,2-dimethyl-D-prolyl-N-{(1R,3R)-1-(4-{[(2R,4S)-1-(4-aminophenyl)-4-carboxypentan-2-yl]carbamoyl}-1,3-thiazol-2-yl)-1-[(dimethylcarbamoyl)oxy]-4-methylpentan-3-yl}-N-methyl-L-isoleucinamide] | 3.1 nM | 3.83 nM | 4.04 nM | 3.86 nM
6 | CC[C@H](C)[C@H](NC(=O)[C@@]1(C)CCCN1C)C(=O)N(C)[C@H](C[C@@H](O)c1nc(C(=O)N[C@@H](Cc2ccc(N)cc2)C[C@H](C)C(=O)O)cs1)C(C)C [#B32, 1,2-dimethyl-D-prolyl-N-[(1R,3R)-1-(4-{[(2R,4S)-1-(4-aminophenyl)-4-carboxypentan-2-yl]carbamoyl}-1,3-thiazol-2-yl)-1-hydroxy-4-methylpentan-3-yl]-N-methyl-L-isoleucinamide] | 12.3 nM | > 100 nM | > 100 nM | > 100 nM
7 | CC[C@H](C)[C@H](NC(=O)[C@@]1(C)CCCN1C)C(=O)N(C)[C@H](C[C@@H](OC(C)=O)c1nc(C(=O)NC(CO)Cc2ccccc2)cs1)C(C)C (stereo partly drawn) [#B50, 1,2-dimethyl-D-prolyl-N-[(1R,3R)-1-(acetyloxy)-1-{4-[(1-hydroxy-3-phenylpropan-2-yl)carbamoyl]-1,3-thiazol-2-yl}-4-methylpentan-3-yl]-N-methyl-L-isoleucinamide] | 8.6 nM | 28.1 nM | 12.1 nM | 8.84 nM
8 | CC[C@H](C)[C@H](NC(=O)[C@@]1(C)CCCN1C)C(=O)N(C)[C@H](C[C@@H](OC(C)=O)c1nc(C(=O)N[C@@H](Cc2ccccc2)[C@@H](O)C(=O)OC)cs1)C(C)C [#B51, 1,2-dimethyl-D-prolyl-N-[(1R,3R)-1-(acetyloxy)-1-(4-{[(2S,3R)-3-hydroxy-4-methoxy-4-oxo-1-phenylbutan-2-yl]carbamoyl}-1,3-thiazol-2-yl)-4-methylpentan-3-yl]-N-methyl-L-isoleucinamide] | 11.7 nM | 7.78 nM | 2.94 nM | 2.2 nM
9 | CC[C@H](C)[C@H](NC(=O)[C@@]1(C)CCCN1C)C(=O)N(C)[C@H](C[C@@H](OC(C)=O)c1nc(C(=O)NCC2(c3ccccc3)CC2)cs1)C(C)C [#B53, 1,2-dimethyl-D-prolyl-N-[(1R,3R)-1-(acetyloxy)-4-methyl-1-(4-{[(1-phenylcyclopropyl)methyl]carbamoyl}-1,3-thiazol-2-yl}pentan-3-yl]-N-methyl-L-isoleucinamide] | 12.9 nM | 52.4 nM | 34 nM | 45.1 nM
10 | CC[C@H](C)[C@H](NC(=O)[C@@]1(C)CCCN1C)C(=O)N(C)[C@H](C[C@@H](OC(C)=O)c1nc(C(=O)N[C@H](CNS(C)(=O)=O)Cc2ccccc2)cs1)C(C)C [#B58, 1,2-dimethyl-D-prolyl-N-{(1R,3R)-1-(acetyloxy)-4-methyl-1-[4-({(2S)-1-[(methylsulphonyl)amino]-3-phenylpropan-2-yl}carbamoyl)-1,3-thiazol-2-yl]pentan-3-yl}-N-methyl-L-isoleucinamide] | 5 nM | 5.63 nM | 2.26 nM | 1.49 nM
11 | CC[C@H](C)[C@H](NC(=O)[C@@]1(C)CCCN1C)C(=O)N(C)[C@H](C[C@@H](OC(C)=O)c1nc(C(=O)N[C@H](COCc2ccccc2)Cc2ccccc2)cs1)C(C)C [#B61, 1,2-dimethyl-D-prolyl-N-[(1R,3R)-1-(acetyloxy)-1-(4-{[(2S)-1-(benzyloxy)-3-phenylpropan-2-yl]carbamoyl}-1,3-thiazol-2-yl)-4-methylpentan-3-yl]-N-methyl-L-isoleucinamide] | 19.1 nM | 38.5 nM | 23.4 nM | 14.7 nM
12 | CC[C@H](C)[C@H](NC(=O)[C@@]1(C)CCCN1C)C(=O)N(C)[C@H](C[C@@H](OC(C)=O)c1nc(C(=O)N[C@@H](Cc2ccccc2)C(O)c2nccs2)cs1)C(C)C (stereo partly drawn) [#B62, 1,2-dimethyl-D-prolyl-N-[(1R,3R)-1-(acetyloxy)-1-(4-{[(2S)-1-hydroxy-3-phenyl-1-(1,3-thiazol-2-yl)propan-2-yl]carbamoyl}-1,3-thiazol-2-yl)-4-methylpentan-3-yl]-N-methyl-L-isoleucinamide] | 4.7 nM | 10.4 nM | 2.65 nM | 2.26 nM
13 | CC[C@H](C)[C@H](NC(=O)[C@@]1(C)CCCN1C)C(=O)N(C)[C@H](C[C@@H](OC(C)=O)c1nc(C(=O)NCCc2cscn2)cs1)C(C)C [#B76, 1,2-dimethyl-D-prolyl-N-[(1R,3R)-1-(acetyloxy)-4-methyl-1-(4-{[2-(1,3-thiazol-4-yl)ethyl]carbamoyl}-1,3-thiazol-2-yl)pentan-3-yl]-N-methyl-L-isoleucinamide] | 19.9 nM | 87.7 nM | 42 nM | 37.4 nM
14 | CC[C@H](C)[C@H](NC(=O)[C@@]1(C)CCCN1C)C(=O)N(C)[C@H](C[C@@H](OC(C)=O)c1nc(C(=O)N[C@@H](Cc2ccccc2)c2nccs2)cs1)C(C)C [#B78, 1,2-dimethyl-D-prolyl-N-[(1R,3R)-1-(acetyloxy)-4-methyl-1-(4-{[(1S)-2-phenyl-1-(1,3-thiazol-2-yl)ethyl]carbamoyl}-1,3-thiazol-2-yl)pentan-3-yl]-N-methyl-L-isoleucinamide] | 9.3 nM | 39.9 nM | 19.9 nM | 14.5 nM
15 | CC[C@H](C)[C@H](NC(=O)[C@@]1(C)CCCN1C)C(=O)N(C)[C@H](C[C@@H](OC(C)=O)c1nc(C(=O)NCCn2nnc3ccccc32)cs1)C(C)C [#B79, 1,2-dimethyl-D-prolyl-N-[(1R,3R)-1-(acetyloxy)-1-(4-{[2-(1H-benzotriazol-1-yl)ethyl]carbamoyl}-1,3-thiazol-2-yl)-4-methylpentan-3-yl]-N-methyl-L-isoleucinamide] | 8.6 nM | 11.2 nM | 5.69 nM | 4.39 nM
